Patent publication US20250282736A1, “SMALL MOLECULE MODULATORS OF HUMAN PREGNANE X RECEPTOR” (ST. JUDE CHILDREN'S RESEARCH HOSPITAL, priority 2022, published 2025)
Where two headings read alike, the source gives them in different places.

Tests used:
hPXR [1] = target: T1, hPXR (Homo sapiens (Human), UniProt O75469); assay: hPXR binding assay; settings: for inhibition at 10 µM: read-out: Binding (% inhibition at 10 μM)
hPXR [2] = target: T1, hPXR; assay: cell-based hPXR agonistic assay; settings: for Agonist (% activation at 10 μM): rifampicin at 10 μM as 100% activation, DMSO (0.3%) as 0%
hPXR [3] = target: T1, hPXR; assay: cell-based hPXR inverse agonistic assay; settings: for inhibition at 10 µM: read-out: Inverse agonist (% inhibition at 10 μM)
hPXR [4] = target: T1, hPXR; assay: cell-based hPXR antagonistic assay; settings: for inhibition at 10 µM: read-out: Antagonist (% inhibition at 10 μM)
[5] = read-out: Binding (IC50/μM), hPXR binding assay
[6] = read-out: Agonist (EC50/μM), cell-based hPXR agonistic assay

T1 sequence (O75469 whole entry): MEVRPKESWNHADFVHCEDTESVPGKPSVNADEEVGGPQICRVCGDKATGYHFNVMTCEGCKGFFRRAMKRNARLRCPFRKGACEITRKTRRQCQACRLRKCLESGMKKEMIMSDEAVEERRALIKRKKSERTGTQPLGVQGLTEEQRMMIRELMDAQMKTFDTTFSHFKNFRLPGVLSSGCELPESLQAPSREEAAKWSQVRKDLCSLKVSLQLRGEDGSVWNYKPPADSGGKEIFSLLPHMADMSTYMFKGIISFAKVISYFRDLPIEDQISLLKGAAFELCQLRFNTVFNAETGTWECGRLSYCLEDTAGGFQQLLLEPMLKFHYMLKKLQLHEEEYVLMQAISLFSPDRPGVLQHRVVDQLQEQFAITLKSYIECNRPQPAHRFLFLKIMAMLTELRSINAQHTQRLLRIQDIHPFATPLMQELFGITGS

SMILES | inhibition at 10 µM (hPXR [1]) | IC50 (hPXR [1]; [5]) | EC50 (hPXR [2]) | IC50 (hPXR [3]) | inhibition at 10 µM (hPXR [3]) | IC50 (hPXR [4]) | inhibition at 10 µM (hPXR [4]) | IC50 (hPXR [1]) | Agonist (% activation at 10 μM) (hPXR [2]) | EC50 (hPXR [2]; [6])
CCC[C@@H](CC)Oc1ccc(C(C)(C)C)cc1NC(=O)c1nnn(-c2cc(OC)ccc2OC)c1C [M2, (R)—N-(5-(Tert-Butyl)-2-(Hexan-3-yloxy)Phenyl)-1-(2,5-Dimethoxyphenyl)-5-Methyl-1H-1,2,3-Triazole-4-Carboxamide] | 88% | 0.019 ± 0.003 µM | > 30 µM | 0.0084 ± 0.004 µM | 130% | 0.052 ± 0.01 µM | 103% | – | – | –
CCCCOc1ccc(C(C)(C)C)cc1NC(=O)c1nnn(-c2ccc(OC)cc2)c1C [E9] | – | – | > 30 µM | > 30 µM | – | > 30 µM | – | > 30 µM | – | –
COc1ccc(OC)c(-n2nnc(C(=O)Nc3ccc(CN4CCN(C)CC4)c(C(F)(F)F)c3)c2C)c1 [A21] | – | – | > 30 µM | > 30 µM | – | > 30 µM | – | > 30 µM | – | –
COc1ccc(OC)c(-n2nnc(C(=O)Nc3cc(C(C)(C)C)ccc3OCCCCN3CCN(C)CC3)c2C)c1 [B22, N-(5-(tert-butyl)-2-(4-(4-methylpiperazin-1-yl)butoxy)phenyl)-1-(2,5-dimethoxyphenyl)-5-methyl-1H-1,2,3-triazole-4-carboxamide] | – | – | > 30 µM | 3.08 ± 0.55 µM | 168% | 6.09 ± 0.85 µM | 114% | > 30 µM | – | –
COc1cc(NC(=O)c2nnn(-c3cc(Cl)ccc3OC)c2C)cc(C(C)(C)C)c1 [F5] | 40% | 0.14 µM | > 30 µM | 0.18 µM | 80% | 0.48 ± 0.14 µM | 103% | – | – | –
CCC[C@H](CC)Oc1ccc(C(C)(C)C)cc1NC(=O)c1nnn(-c2cc(C)c(OC)cc2OC)c1C [M11, (S)—N-(5-(Tert-Butyl)-2-(Hexan-3-yloxy)Phenyl)-1-(2,4-Dimethoxy-5-Methylphenyl)-5-Methyl-1H-1,2,3-Triazole-4-Carboxamide] | 94% | – | 0.0066 ± 0.0002 µM | > 30 µM | – | 65 ± 28 µM | 15% | 0.045 ± 0.013 µM | (92 ± 8)% | –
COc1ccc(-n2nnc(C(=O)Nc3cccc(N4CCCC4)c3)c2C)cc1 [E1, 1-(4-methoxyphenyl)-5-methyl-N-(3-(pyrrolidin-1-yl)phenyl)-1H-1,2,3-triazole-4-carboxamide] | – | – | 0.32 ± 0.1 µM | > 30 µM | – | > 30 µM | – | > 30 µM | (30 ± 7)% | –
CCCCOc1ccc(C(C)(C)C)cc1NC(=O)c1nnn(-c2cc(OC)ccc2F)c1C [H8] | 18% | 0.053 ± 0.036 µM | – | > 30 µM | – | > 30 µM | – | – | (48 ± 1)% | 1.48 ± 0.17 µM
COc1ccc(C)cc1-n1nnc(C(=O)Nc2ccc(OC)c(C(C)(C)C)c2)c1C [G3] | 71% | 1.08 ± 0.36 µM | > 30 µM | 0.82 µM | 111% | 1.7 µM | 105% | – | – | –
CCCCOc1ccc(C(C)(C)C)cc1NC(=O)c1nnn(-c2ccc3c(c2)OCO3)c1C [H18] | – | – | – | > 30 µM | – | > 30 µM | – | > 30 µM | (43 ± 8)% | 4.61 ± 1.18 µM
COc1ccc(-n2nnc(C(=O)Nc3cccc(C)c3)c2C)cc1 [E8] | – | – | > 30 µM | > 30 µM | – | > 30 µM | – | > 30 µM | – | –
COc1ccc(OC)c(-n2nnc(C(=O)Nc3cc(NC(=O)CCC(=O)O)cc(C(C)(C)C)c3)c2C)c1 [D6, 4-((3-(tert-butyl)-5-(1-(2,5-dimethoxyphenyl)-5-methyl-1H-1,2,3-triazole-4-carboxamido)phenyl)amino)-4-oxobutanoic acid] | 70% | 1.26 µM | > 30 µM | 12.7 ± 4.69 µM | 48% | 22.1 ± 4.86 µM | 25% | – | – | –
COc1ccc(OC)c(-n2nnc(NC(=O)Nc3ccc(C(C)(C)C)cc3)c2C)c1 [K3] | – | – | 3.39 ± 0.14 µM | > 30 µM | – | > 30 µM | – | > 30 µM | (61 ± 4)% | –
COc1ccc(OC)c(-n2nnc(C(=O)Nc3cc(OCCCCCCCC=O)cc(C(C)(C)C)c3)c2C)c1 [D26] | 77% | 1.13 ± 0.36 µM | > 30 µM | 0.24 µM | 111% | 1.28 ± 0.28 µM | 189% | – | – | –
COc1ccc(OC)c(-n2nnc(C(=O)Nc3cccc(N4CCN(C)CC4)c3)c2C)c1 [A15] | – | – | > 30 µM | > 30 µM | – | > 30 µM | – | > 30 µM | – | –
CCC[C@H](CC)Oc1ccccc1NC(=O)c1nnn(-c2cc(OC)ccc2OC)c1C [M3, (S)-1-(2,5-Dimethoxyphenyl)-N-(2-(Hexan-3-yloxy)Phenyl)-5-Methyl-1H-1,2,3-Triazole-4-Carboxamide] | 77% | 0.013 ± 0.003 µM | > 30 µM | 0.0034 ± 0.0003 µM | 106% | 0.033 ± 0.004 µM | 107% | – | – | –

SMILES | inhibition at 10 µM (hPXR [1]) | IC50 (hPXR [1]; [5]) | EC50 (hPXR [2]) | IC50 (hPXR [3]) | inhibition at 10 µM (hPXR [3]) | IC50 (hPXR [4]) | inhibition at 10 µM (hPXR [4]) | IC50 (hPXR [1]) | Agonist (% activation at 10 μM) (hPXR [2]) | EC50 (hPXR [2]; [6])
COc1ccc(OC)c(-n2nnc(C(=O)Nc3cc(OCC(=O)OC(C)(C)C)cc(C(C)(C)C)c3)c2C)c1 [D31, tert-butyl 2-(3-(tert-butyl)-5-(1-(2,5-dimethoxyphenyl)-5-methyl-1H-1,2,3-triazole-4-carboxamido)phenoxy)acetate] | 73% | 0.16 µM | > 30 µM | 0.1 µM | 126% | 0.43 µM | 105% | – | – | –
CCCCOc1ccc(C(C)(C)C)cc1NC(=O)c1nnn(-c2cc(OC)cc(OC)c2)c1C [H16] | – | – | – | > 30 µM | – | > 30 µM | – | > 30 µM | (32 ± 4)% | 2.77 ± 0.47 µM
COc1ccc(OC)c(-n2nnc(C(=O)Nc3cc(C(C)(C)C)ccc3O)c2C)c1 [B2, N-(5-(tert-butyl)-2-hydroxyphenyl)-1-(2,5-dimethoxyphenyl)-5-methyl-1H-1,2,3-triazole-4-carboxamide] | 84% | 2.33 ± 0.43 µM | > 30 µM | > 30 µM | – | > 30 µM | – | – | – | –
CCC[C@H](CC)Oc1ccc(C(C)(C)C)cc1NC(=O)c1nnn(-c2cc(Cl)c(Cl)cc2OC)c1C [M12, (S)—N-(5-(Tert-Butyl)-2-(Hexan-3-yloxy)Phenyl)-1-(4,5-Dichloro-2-Methoxyphenyl)-5-Methyl-1H-1,2,3-Triazole-4-Carboxamide] | 90% | 0.23 ± 0.1 µM | > 30 µM | 0.065 ± 0.039 µM | 97% | 0.32 ± 0.02 µM | 99% | – | – | –
COc1ccc(OC)c(-n2nnc(C(=O)Nc3cc(-n4cnc(C)c4)cc(C(F)(F)F)c3)c2C)c1 [A20] | – | – | > 30 µM | > 30 µM | – | > 30 µM | – | > 30 µM | – | –
COc1ccc(OC)c(-n2nnc(NC(=O)Nc3cccc(C(C)(C)C)c3)c2C)c1 [K4] | 24% | 0.39 ± 0.19 µM | 1.45 ± 0.25 µM | > 30 µM | – | > 30 µM | – | – | (103 ± 5)% | –
COc1ccc(OC)c(-n2nnc(C(=O)Nc3cc(C)ccc3OC)c2C)c1 [A25] | 73% | 1.36 ± 0.23 µM | > 30 µM | 20.6 ± 0.42 µM | 53% | 12 ± 2 µM | 70% | – | – | –
COc1ccc(-n2nnc(C(=O)Nc3cccc(C(C)(C)C)c3)c2C)cc1 [E5] | – | – | 4.05 ± 1.52 µM | > 30 µM | – | > 30 µM | – | > 30 µM | (41 ± 3)% | –
COc1ccc(-n2nnc(C(=O)Nc3ccc(NC(C)=O)c(C(C)(C)C)c3)c2C)cc1 [E2, N-(4-acetamido-3-(tert-butyl)phenyl)-1-(4-methoxyphenyl)-5-methyl-1H-1,2,3-triazole-4-carboxamide] | 54% | 6.94 ± 0.2 µM | 5.16 ± 1.1 µM | > 30 µM | – | > 30 µM | – | – | (24 ± 2)% | –
COc1ccc(OC)c(-n2nnc(C(=O)Nc3cc(NCCN)cc(C(C)(C)C)c3)c2C)c1 [D10] | – | – | > 30 µM | 7.09 ± 1.37 µM | 130% | 11.9 ± 2.27 µM | 104% | > 30 µM | – | –
COc1ccc(OC)c(-n2nnc(C(=O)Nc3cc(OCCOCCOCCOCCNC(=O)CCCC[C@@H]4SC[C@@H]5NC(=O)N[C@@H]54)cc(C(C)(C)C)c3)c2C)c1 [L1] | – | – | > 30 µM | > 30 µM | – | 5.44 ± 1 µM | 40% | > 30 µM | – | –
COc1ccc(OC)c(-n2nnc(C(=O)Nc3ccnc(C(C)(C)C)c3)c2C)c1 [A7] | – | – | > 30 µM | 10.3 ± 3.25 µM | 80% | > 30 µM | – | > 30 µM | – | –
COC(=O)CCCOc1cc(NC(=O)c2nnn(-c3cc(OC)ccc3OC)c2C)cc(C(C)(C)C)c1 [D29] | 25% | 0.31 ± 0.17 µM | > 30 µM | 0.31 µM | 105% | 1.09 ± 0.3 µM | 107% | – | – | –
COc1ccc(OC)c(-n2nnc(NS(=O)(=O)c3ccc(C(C)(C)C)cc3)c2C)c1 [K7] | 92% | 0.33 µM | 0.39 µM | > 30 µM | – | 10.7 ± 2.39 µM | 25% | – | (68 ± 5)% | –
COc1ccc(OC)c(-n2nnc(C(=O)Nc3cc(C(C)(C)C)ccc3OCC(C)(C)C)c2C)c1 [B29] | 85% | 0.0177 ± 0.0031 µM | > 30 µM | 0.026 µM | 100% | 0.18 µM | 99% | – | – | –
